Source: patent US20250345458A1, “COMPLEXING AGENT SALT FORMULATIONS OF PHARMACEUTICAL COMPOUNDS AT LOW STOICHIOMETRIC RATIOS” (Bexson Biomedical, Inc., priority 2022, published 2025)
Marks after values point to notes of the source that are not given here.

Tests used:
[1] = Osmolality of API formulations (micro osmometer, triplicate); format: physicochemical
Procedure: Osmolality readings were obtained on an Advanced Instruments Advanced™ Micro Osmometer Model 3300 (Advanced Instruments, Inc. Norwood, MA, USA). Saline solutions (0.9% and 3%) were run as positive controls. Each sample was calculated as the mean from back-to-back triplicate measurements. When replicate batches were measured, data was reported as mean±SEM.
The procedure was performed on a 2 mL scale. […] Benzethonium chloride (20 μL of a 1% solution, 0.01% final concentration) was added via micropipette. The pH was adjusted to ˜7.00 with 2M sodium hydroxide, or either 1M or 2M HCl in some cases, and then the mixture was transferred to a 2 mL volumetric flask to be diluted with HPLC grade water. […]
Method 1: In a 5 mL borosilicate glass test tube which contained a Teflon-coated magnetic stir bar, Captisol®-Na+ ([…], H+ equivalents, moisture corrected) was dissolved in HPLC grade water (1.6-1.7 mL), API salt (HCl in most cases) (70 mg/mL FB equivalents) was added and the mixture was stirred until a homogenous transparent solution formed. Benzethonium chloride (20 μL of a 1% solution, giving a 0.01% final concentration) was added via micropipette. The pH was adjusted to ˜7.00 with 1M or 2M sodium hydroxide, or either 1M or 2M HCl in some cases, and then the mixture was transferred to a 2 mL volumetric flask to be diluted with HPLC grade water. […]
Benzethonium chloride (20 μL of a 1% solution, giving a 0.01% final concentration) was added via micropipette. The pH was adjusted to ˜7.00 with 1M or 2M sodium hydroxide, or either 1M or 2M HCl in some cases, and then the mixture transferred to a 2 mL volumetric flask to be diluted with HPLC grade water. […]
The solution was transferred to a 2 mL volumetric flask and diluted to the target volume with HPLC grade water. […]

[2] = pH of API formulations (pH meter); format: physicochemical
[3] = Reported solubility in water of APIs (freebase and salt); format: physicochemical
Procedure: Table 5 lists the solubility and pKa values of the various APIs described above.
A challenge was that reliable solubility data for certain APIs was difficult to locate (especially for the freebase forms). As such in a number of instances only predicted values could be located and in the case of rimantidine HCl this value was inconsistent with our empirical results. Likewise, the drugbank predicted value for tigecycline was 0.01455 mg/mL, whereas a literature value was 0.45 mg/mL. The solubility of a range of poor to moderately to highly soluble APIs as freebases as well as common commercial API salt forms will be determined.

[4] = Osmolality of API formulations (micro osmometer, triplicate); format: physicochemical; remark: listed apart in the source
[5] = Dissolution of API freebase in aqueous CapAcid / Captisol solutions at defined API:CapAcid ratios, visual inspection and NaOH titration; details: water, 70 mg/mL FB; listed as Rimantidine

osmolality and pH in words ([1]; 70 mg/mL API-Cap formulation): isosmotic and PH neutral
Osmolality ([1]; API FB CapAcid formulation, 70 mg/mL API FB, 1.1 equivalents CapAcid (H^+ equivalents), after titration): 301.7 mOsmol/kg
Osmolality ([1]; CapAcid-API Freebase Formulation (70 mg/mL API FB, 1.1 molar equivalent CapAcid), after pH titration with NaOH or HCl): 301.7 mOsm/kg
Osmolality ([1]; Captisol®-Na^+ formulation of API salt, ***20 mg/mL FB equivalents, 1.1 molar equivalent Captisol®-Na^+): 297.3*** mOsm/kg
pH of the solution prior to titration ([2]; 20 mg/mL API HCl (FB equivalent), 1.1 equivalents Captisol®-Na^+, before NaOH): 4.65
pH of the solution prior to titration ([2]; 70 mg/mL API FB, 1.1 equivalents CapAcid, before NaOH/HCl): 1.93
pH ([2]; CapAcid-API Freebase Formulation (70 mg/mL API FB, 1.1 molar equivalent CapAcid), final pH after titration and dilution): 6.98
solubility [3]: ~20 mg/mL
Osmolality ([4]; 20 mg/mL API HCl (FB equivalent), 1.1 equivalents Captisol®-Na^+): 297.3 mOsmol/kg
Osmolality ([4]; API Salt in water, ***20 mg/mL FB equivalents): 195.3 mOsm/kg
Successful in a 70 mg/mL API-CapAcid Formulation (Y/N) [5]: prepared at 70 mg/mL without issue
Compound: CC(N)C12CC3CC(CC(C3)C1)C2 (centres unmarked) [Rimantadine]
